Experimental data: patent publication US20040171613A1, “Therapeutic agent for non-immediate type allergic diseases” (JAPAN TOBACCO INC., priority 2001, published 2004)

Key:
[1] = tested on: rat mast cell line RBL-2H3; assay: leukotriene production from rat mast cell line; assay type: cell-based; conditions: anti-DNP IgE sensitization, DNP-BSA stimulation; 0.1 to 10 μM
Procedure: Then, the resulting solutions were diluted with E-MEM (EAGLE-MEM; Nikken Biomedical Lab.) to prepare solutions of 100 to 1 μM (1% DMSO solution). To act the solutions on cells, they were further diluted to 10 μM to 0.1 μM (0.1% DMSO solution).
1 mM PIPES (Dojin Molecular Technologies, Inc.), […], 0.5 mM KCl, 0.06 mM MgCl2, 0.1 mM CaCl2, 0.55 mM glucose and 0.1% BSA (bovine serum albumin; Sigma) were prepared with purified water and then adjusted to pH 7.4 using NaOH.
1 mg/mL anti-DNP IgE (monoclonal murine anti-DNP IgE; Yamasa Corp.) was diluted to 1000 fold with the PIPES buffer to prepare a 1 μg/mL solution.
10 mg/mL DNP-BSA was diluted to a concentration of 10 μg/mL with the PIPES buffer.
Culture medium: E-MEM containing heat-inactivated 10% FCS (fetal calf serum; Morgate Biotech), 100 units/mL penicillin and 100 μg/mL streptomycin (in the form of penicillin/streptomycin; GIBCO).
After centrifuging and washing rat mast cell line RBL-2H3 (Human Science; 1×10^6cells/mL/tube) with the above-described culture medium, the cells were resuspended in the culture medium and cultured in a 75-cm^2 flask (Falcon 353136) for 3 days. […]
30 minutes after the antigen stimulation, 20 μL/well supernatant was recovered and the LTs amount was measured according to manufacturer's protocol of LTs EIA kit (Amersham Pharmacia).

human basophils = assay: leukotriene production from human basophils; assay type: cell-based; conditions: anti-human IgE antibody stimulation; IL-3 preincubation
Procedure: To act them on cells, the solutions were further diluted to 10 μM to 0.01 μM (0.1% DMSO solution).
Using a syringe charged with 3.8% sodium citrate solution, 100 mL blood was obtained from human blood.
Using 10× HBSS (−) (10×Hank's balanced salt solution, GIBCO), Percoll (Amersham) and Milli Q water, 1.070 g/mL, 1.079 g/mL and 1.088 g/mL Percoll-HBSS (−) were prepared and layered, and the obtained blood was loaded on the layers and centrifuged at 300× g for 25 minutes. A cell fraction between the 1.070 g/mL Percoll-HBSS (−) layer and the 1.079 g/mL Percoll-HBSS (−) layer was recovered. 3 volumes of HBSS (−) was added to the recovered cell suspension and centrifuged at 300× g at 4° C. for 7 minutes. After centrifugation, the supernatant was discarded and the cells were rinsed once with HBSS (−). Thus recovered cell population was used as the basophils.
The basophils were prepared to 2.5×10^6 cells/mL with Tyrode solution, and 10 μg/mL recombinant human IL-3 (Genzyme/Techne) was added to a final concentration of 100 ng/mL. Immediately thereafter, 80 μL/well ([…]) of basophils were seeded on a round-bottom 96-well plate and were incubated in 5% CO2 at 37° C. for 30 minutes.
After preincubation, 10 μL/well of the above-described test compound was added and incubated in 5% CO2 at 37° C. for 10 minutes. […]

CB2 [2] = molecular target: T1, CB2 (Homo sapiens, UniProt P34972); assay: cAMP production in forskolin-stimulated hCB2-expressing CHO cells; assay type: cell-based; design: expressed in transfected cells; host or cells: CHO cells
Target sequence in this assay (P34972 whole entry): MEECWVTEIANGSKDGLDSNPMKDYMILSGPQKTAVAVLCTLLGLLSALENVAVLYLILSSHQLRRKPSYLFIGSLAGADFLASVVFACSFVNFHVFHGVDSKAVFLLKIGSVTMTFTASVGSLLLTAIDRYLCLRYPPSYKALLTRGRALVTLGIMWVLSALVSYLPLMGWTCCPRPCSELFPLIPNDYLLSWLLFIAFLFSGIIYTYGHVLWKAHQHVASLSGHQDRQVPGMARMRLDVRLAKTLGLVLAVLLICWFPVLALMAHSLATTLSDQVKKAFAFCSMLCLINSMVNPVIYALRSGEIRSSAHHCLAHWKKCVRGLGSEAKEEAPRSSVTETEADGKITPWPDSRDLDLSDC

CB2 [3] = molecular target: T1, CB2; design: host or cells: CHO cells expressing CB2; conditions: cited from earlier work
Target sequence in this assay (P34972 whole entry, species assumed): as the sequence (P34972 whole entry) above

CCCCCOc1c(OC)ccc2cc(C(=O)NCc3ccc4c(c3)OCO4)c(=O)[nH]c12 [Compound A, N-(benzo[1,3]dioxol-5-ylmethyl)-7-methoxy-2-oxo-8-pentyloxy-1,2-dihydroquinoline-3-carboxamide]
leukotriene production (C4/D4/E4) [1]: suppressive effect | production of leukotrienes (C4/D4/E4) (human basophils): suppressive action | effect on agonistic action of 2-AG-E (CB2 [2]): suppress the agonistic action of 2-AG-E | cAMP production relative to control at 0.1 µM (CB2 [2]; CHO, read-out: Amount of cAMP production compared to control (ratio (%))): 430% | forskolin-stimulated cAMP production (CB2 [3]): elevate the production of cyclic adenosine-phosphate (cAMP)
